Measured values taken from US8318725B2, “Aryl indolyl sulfonamide compounds and their use as 5-HT6 ligands” (Suven Life Sciences Limited, priority 2008, dated 2012).
Structures can show the parent of a compound that is named as a salt.

Assays:
Human 5-HT6 receptor = biological target: T1, Human 5-HT6 receptor (Homo sapiens, UniProt P50406); experiment: Binding assay for human 5-HT6 receptor ([3H] LSD radioligand); details: [3H] LSD 1.5 nM, human recombinant receptor in HEK293 cells; for inhibition at 0.1 µM: read-out: % Inhibition of specific binding at 100 nM
T1 construct: expressed in transfected cells; host or cells: HEK293
T1 sequence (P50406 whole entry): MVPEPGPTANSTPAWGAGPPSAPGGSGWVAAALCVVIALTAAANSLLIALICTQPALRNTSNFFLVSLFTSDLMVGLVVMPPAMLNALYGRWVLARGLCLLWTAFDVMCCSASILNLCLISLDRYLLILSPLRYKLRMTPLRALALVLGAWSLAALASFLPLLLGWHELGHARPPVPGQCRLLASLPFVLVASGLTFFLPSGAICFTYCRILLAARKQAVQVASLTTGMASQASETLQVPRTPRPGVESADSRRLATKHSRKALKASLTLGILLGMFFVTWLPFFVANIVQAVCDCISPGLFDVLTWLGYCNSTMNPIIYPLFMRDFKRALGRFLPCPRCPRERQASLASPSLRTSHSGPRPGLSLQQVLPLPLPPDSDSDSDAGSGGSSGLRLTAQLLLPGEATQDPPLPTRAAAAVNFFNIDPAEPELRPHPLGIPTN
Procedure: Binding Assay for Human 5-HT6 Receptor
Compounds can be tested according to the following the procedures. Materials and Methods:
Receptor source: Human recombinant expressed in HEK293 cells
Radioligand: [^3H] LSD (60-80 Ci/mmol)
Final ligand concentration—[1.5 nM]
Non-specific determinant: Methiothepin mesylate—[0.1 μM]
Reference compound: Methiothepin mesylate
Positive control: Methiothepin mesylate
Reactions were carried out in […] TRIS-HCl (pH 7.4) containing 10 μM MgCl2, 0.5 mM EDTA for 60 minutes at 37° C. The reaction was terminated by rapid vacuum filtration onto glass fiber filters. Radioactivity trapped onto the filters was determined and compared to control values in order to ascertain any interactions of test compound(s) with the cloned serotonin 5-HT6binding site.
Literature Reference: Monsma F. J. Jr., et al., Molecular Cloning and Expression of Novel Serotonin Receptor with High Affinity for Tricyclic Psychotropic Drugs. Mol. Pharmacol. (43): 320-327 (1993).

SMILES | melting point [°C] | inhibition at 0.1 µM (Human 5-HT6 receptor; 100 nM test compound) [%] | Ki (Human 5-HT6 receptor) [nM] | % Inhibition of specific binding at 100 nM (Human 5-HT6 receptor; 100 nM test compound) [%]
CCN1CCN(Cc2cc(S(=O)(=O)n3ccc4cc(OC)ccc43)ccc2Cl)CC1.Cl.Cl [Example 18, 1-[4-Chloro-3-(4-ethylpiperazin-1-ylmethyl)benzenesulfonyl]-5-methoxy-1H-indole dihydrochloride] | 209.5 to 211 | 55.7 |  | 
CCOc1ccc2c(ccn2S(=O)(=O)c2cccc(CN3CCN(C)CC3)c2)c1 [Example 11, 5-Ethoxy-1-[3-(4-methylpiperazin-1-ylmethyl)benzenesulfonyl]-1H-indole] |  | 63.7 |  | 
CCN1CCN(Cc2cc(S(=O)(=O)n3ccc4cc(F)ccc43)ccc2Cl)CC1.Cl.Cl [Example 25, 1-[4-Chloro-3-(4-ethylpiperazin-1-ylmethyl)benzenesulfonyl]-5-fluoro-1H-indole dihydrochloride] | 204.1 to 205.5 | 64.8 |  | 
CN1CCN(Cc2cc(S(=O)(=O)n3ccc4c(Cl)cccc43)ccc2Cl)CC1.Cl.Cl [Example 20, 1-[4-Chloro-3-(4-methylpiperazin-1-ylmethyl)benzenesulfonyl]-4-chloro-1H-indole dihydrochloride] | 242.7 to 244.3 | 85.2 |  | 
COc1ccc2c(ccn2S(=O)(=O)c2ccc(C)c(CN3CCN(C)CC3)c2)c1.Cl.Cl [Example 24, 1-[4-methyl-3-(4-methylpiperazin-1-ylmethyl)benzenesulfonyl]-5-methoxy-1H-indole dihydrochloride] | 198.1 to 199.3 | 62.2 |  | 
CN1CCN(Cc2cc(S(=O)(=O)n3cc(Br)c4cc(F)ccc43)ccc2Cl)CC1 [Example 5, 1-[4-Chloro-3-(4-methylpiperazin-1-ylmethyl)benzenesulfonyl]-5-fluoro-3-bromo-1H-indole] | 161.3 to 162.6 |  |  | 
CCN1CCN(Cc2cc(S(=O)(=O)n3ccc4cc(F)ccc43)ccc2C)CC1.Cl.Cl [Example 44, 1-[4-Methyl-3-(4-ethylpiperazin-1-ylmethyl)benzenesulfonyl]-5-fluoro-1H-indole dihydrochloride] | 203.4 to 206.2 | 78.5 |  | 
CCN1CCCN(Cc2cc(S(=O)(=O)n3cc(C)c4ccccc43)ccc2Cl)CC1 [Example 45, 1-[4-Chloro-3-(4-ethyl-[1,4]diazepan-1-ylmethyl)benzenesulfonyl]-3-methyl-1H-indole dihydrochloride] |  | 98.5 |  | 
CCN1CCN(Cc2cc(S(=O)(=O)n3cc(C)c4ccccc43)ccc2Cl)CC1.Cl.Cl | 218.9 to 220.5 |  |  | 
COc1ccc2c(c1)c(Br)cn2S(=O)(=O)c1ccc(Cl)c(CN2CCN(C)CC2)c1.Cl.Cl | 195.4 to 199.3 |  |  | 
CCN1CCN(Cc2cc(S(=O)(=O)n3ccc4cc(F)ccc43)ccc2Br)CC1 [Example 4, 1-[4-Bromo-3-(4-ethylpiperazin-1-ylmethyl)benzenesulfonyl]-5-fluoro-1H-indole] | 92.2 to 93.9 | 62.5 |  | 
COc1ccc2c(c1)c(C)cn2S(=O)(=O)c1ccc(Cl)c(CN2CCN(C)CC2)c1.Cl.Cl | 213.3 to 214.2 |  |  | 
CCN1CCN(Cc2cc(S(=O)(=O)n3ccc4cc(Br)ccc43)ccc2Br)CC1.Cl.Cl [Example 37, 1-[4-Bromo-3-(4-ethylpiperazin-1-ylmethyl)benzenesulfonyl]-5-bromo-1H-indole dihydrochloride] | 205.1 to 207.1 | 55.9 |  | 
CCN1CCN(Cc2cc(S(=O)(=O)n3cc(C)c4cc(OC)ccc43)ccc2Br)CC1.Cl.Cl | 211.3 to 212.1 |  |  | 
CCN1CCN(Cc2cc(S(=O)(=O)n3ccc4cc(OC)ccc43)ccc2Br)CC1 [Example 3, 1-[4-Bromo-3-(4-ethylpiperazin-1-ylmethyl)benzenesulfonyl]-5-methoxy-1H-indole] | 196.1 to 198.6 | 50.5 |  | 
CN1CCN(Cc2cc(S(=O)(=O)n3ccc4ccccc43)ccc2Br)CC1.Cl.Cl [Example 21, 1-[4-Bromo-3-(4-methylpiperazin-1-ylmethyl)benzenesulfonyl]-1H-indole dihydrochloride] | 214.1 to 216 | 88.8 |  | 
CN1CCN(Cc2cc(S(=O)(=O)n3ccc4cc(Br)ccc43)ccc2Cl)CC1.Cl.Cl | 214.7 to 215.6 |  |  | 
CCN1CCN(Cc2cc(S(=O)(=O)n3ccc4ccccc43)ccc2Br)CC1 [Example 1, 1-1-[4-Bromo-3-(4-ethylpiperazin-1-ylmethyl)benzenesulfonyl]-1H-indole] |  |  |  | 78.91

The next lines start with results.

melting point [°C] | inhibition at 0.1 µM (Human 5-HT6 receptor; 100 nM test compound) [%] | Ki (Human 5-HT6 receptor) [nM] | SMILES | % Inhibition of specific binding at 100 nM (Human 5-HT6 receptor; 100 nM test compound) [%]
226.99 |  |  | CCN1CCN(Cc2cc(S(=O)(=O)n3cc(C)c4cc(OC)ccc43)ccc2C)CC1.Cl.Cl | 
208.6 to 212.8 | 71.8 |  | CCN1CCN(Cc2cc(S(=O)(=O)n3ccc4cc(Br)ccc43)ccc2Cl)CC1.Cl.Cl [Example 29, 1-[4-Chloro-3-(4-ethylpiperazin-1-ylmethyl)benzenesulfonyl]-5-bromo-1H-indole dihydrochloride] | 
220.3 to 223.4 | 86.2 |  | Cc1ccc(S(=O)(=O)n2ccc3cc(F)ccc32)cc1CN1CCN(C)CC1.Cl.Cl [Example 43, 1-[4-Methyl-3-(4-methylpiperazin-1-ylmethyl)benzenesulfonyl]-5-fluoro-1H-indole dihydrochloride] | 
208.8 to 210.2 | 42 |  | COc1ccc2c(ccn2S(=O)(=O)c2ccc(Cl)c(CN3CCN(C)CC3)c2)c1.Cl.Cl [Example 16, 1-[4-Chloro-3-(4-methylpiperazin-1-ylmethyl)benzenesulfonyl]-5-methoxy-1H-indole dihydrochloride] | 
196 to 197.1 |  | 18.4 | CCN1CCN(Cc2cc(S(=O)(=O)n3ccc4ccccc43)ccc2Cl)CC1.Cl.Cl [Example 15, 1-[4-Chloro-3-(4-ethylpiperazin-1-ylmethyl)benzenesulfonyl]-1H-indole dihydrochloride] | 
205.9 to 207.2 | 82 |  | CCN1CCN(Cc2cc(S(=O)(=O)n3ccc4c(Cl)cccc43)ccc2Cl)CC1.Cl.Cl [Example 19, 1-[4-Chloro-3-(4-ethylpiperazin-1-ylmethyl)benzenesulfonyl]-4-chloro-1H-indole dihydrochloride] | 
210.6 to 213.9 | 83.3 |  | CN1CCN(Cc2cc(S(=O)(=O)n3ccc4ccccc43)ccc2Cl)CC1.Cl.Cl [Example 13, 1-[4-Chloro-3-(4-methylpiperazin-1-ylmethyl)benzenesulfonyl]-1H-indole dihydrochloride] | 
 | 79.2 |  | CN1CCN(Cc2cccc(S(=O)(=O)n3ccc4cc(F)ccc43)c2)CC1 [Example 10, 5-Fluoro-1-[3-(4-methylpiperazin-1-ylmethyl)benzenesulfonyl]-1H-indole] | 
220.2 to 221.3 | 73 |  | CN1CCN(Cc2cc(S(=O)(=O)n3ccc4cc(F)ccc43)ccc2Cl)CC1.Cl.Cl [Example 14, 1-[4-Chloro-3-(4-methylpiperazin-1-ylmethyl)benzenesulfonyl]-5-fluoro-1H-indole dihydrochloride] | 
208.2 to 209.2 |  |  | CN1CCN(Cc2cc(S(=O)(=O)n3ccc4cc(Br)ccc43)ccc2Br)CC1.Cl.Cl | 
204.1 to 206.5 | 91.5 |  | CCN1CCN(Cc2cc(S(=O)(=O)n3cc(C)c4ccccc43)ccc2Br)CC1.Cl.Cl [Example 39, 1-[4-Bromo-3-(4-ethylpiperazin-1-ylmethyl)benzenesulfonyl]-3-methyl-1H-indole dihydrochloride] | 
219.4 to 221.6 |  |  | CN1CCN(Cc2cc(S(=O)(=O)n3ccc4cc(F)ccc43)ccc2Br)CC1.Cl.Cl | 
217.5 to 220.8 | 68 |  | CCN1CCN(Cc2cc(S(=O)(=O)n3cc(C)c4cc(OC)ccc43)ccc2Cl)CC1.Cl.Cl [Example 30, 1-[4-Chloro-3-(4-ethylpiperazin-1-ylmethyl)benzenesulfonyl]-5-methoxy-3-methyl-1H-indole dihydrochloride] | 
190.32 |  |  | COc1ccc2c(c1)c(C)cn2S(=O)(=O)c1ccc(C)c(CN2CCN(C)CC2)c1.Cl.Cl | 
160.94 |  |  | CCN1CCN(Cc2cc(S(=O)(=O)n3ccc4cc(OC)ccc43)ccc2C)CC1.Cl.Cl | 
 | 67.6 |  | COc1ccc2c(ccn2S(=O)(=O)c2cccc(CN3CCN(C)CC3)c2)c1 [Example 9, 5-Methoxy-1-[3-(4-methylpiperazin-1-ylmethyl)benzenesulfonyl]-1H-indole] | 
115.2 to 120 |  |  | COc1ccc2c(ccn2S(=O)(=O)c2ccc(Br)c(CN3CCN(C)CC3)c2)c1 [Example 2, 1-[4-Bromo-3-(4-methylpiperazin-1-ylmethyl)benzenesulfonyl]-5-methoxy-1H-indole] | 
 | 92.2 |  | Cc1cn(S(=O)(=O)c2ccc(Cl)c(CN3CCCN(C)CC3)c2)c2ccccc12 [Example 46, 1-[4-Chloro-3-(4-methyl[1,4]diazepan-1-ylmethyl)benzenesulfonyl]-3-methyl-1H-indole dihydrochloride] | 
216.9 to 219.7 |  |  | CCN1CCN(Cc2cc(S(=O)(=O)n3cc(Br)c4cc(OC)ccc43)ccc2Cl)CC1.Cl.Cl | 
214.3 to 215.7 |  |  | COc1ccc2c(c1)c(C)cn2S(=O)(=O)c1ccc(Br)c(CN2CCN(C)CC2)c1.Cl.Cl | 
